Assay results reported in ChEMBL document CHEMBL1201862, “PubChem BioAssay data set” (2004).
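Five concentrations, 48 hours, 96-well plates. GI50 is the concentration that inhibits growth by half.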 Active and inactive are the calls of the source. No stated cut-off is given here; in the data, active = GI50 up to about 1.1 µM and inactive = higher.

Tests used:
Assay in all cases: NCI-60 cell line screen, 48 h
[1] = test system: ACHN
[2] = test system: CCRF-CEM
[3] = test system: HCT-116
[4] = test system: HOP-92
[5] = test system: HT-29
[6] = test system: IGROV-1
[7] = test system: K562
[8] = test system: MCF7
[9] = test system: NCI-H23
[10] = test system: OVCAR-3
[11] = test system: OVCAR-5
[12] = test system: SF-268
[13] = test system: SNB-75
[14] = test system: SW-620
[15] = test system: TK-10
[16] = test system: U-251
[17] = test system: UO-31
[18] = test system: RXF 393
[19] = test system: T47D
[20] = test system: A498

Measured: GI50

Cc1nc2ccc(S(=O)(=O)Nc3ccccc3)cc2c(=O)n1NC(=O)CNc1ccccc1
inactive: [1] > 100 µM | [2] > 100 µM | [3] > 100 µM | [4] > 100 µM | [5] > 100 µM | [6] 67.3 µM | [7] > 100 µM | [8] > 100 µM | [9] > 100 µM | [10] > 100 µM | [11] > 100 µM | [12] > 100 µM | [13] > 100 µM | [14] > 100 µM | [15] > 100 µM | [16] > 100 µM | [17] > 100 µM

CC1(C)CC(=O)c2c(nc3c(ccc4ccccc43)c2-c2ccc(NC(=O)CCCC(=O)Nc3ccc(-c4c5c(nc6c4ccc4ccccc46)CC(C)(C)CC5=O)cc3)cc2)C1
inactive: [1] > 100 µM | [2] > 100 µM | [3] > 100 µM | [5] > 100 µM | [6] 58.5 µM | [7] > 100 µM | [8] > 100 µM | [10] > 100 µM | [11] > 100 µM | [18] > 100 µM | [12] > 100 µM | [13] > 100 µM | [14] > 100 µM | [19] > 100 µM | [15] > 100 µM | [16] > 100 µM | [17] > 100 µM

CNc1ncnc2c1cnn2Cc1cn(COCC(O)CO)nn1 (stereo unspecified)
inactive: [20] > 100 µM | [1] > 100 µM | [2] > 100 µM | [3] > 100 µM | [4] 59.4 µM | [5] > 100 µM | [6] > 100 µM | [8] > 100 µM | [9] > 100 µM | [10] > 100 µM | [11] > 100 µM | [12] 4.97 µM | [14] > 100 µM | [19] > 100 µM | [15] > 100 µM | [16] > 100 µM | [17] > 100 µM

CC(=O)Oc1ccc(/C=C/C(=O)NCC(NC(=O)/C=C/c2ccc(OC(C)=O)c(OC(C)=O)c2)C(=O)O)cc1OC(C)=O (stereo unspecified)
inactive: [20] > 100 µM | [1] > 100 µM | [2] 32 µM | [3] > 100 µM | [4] > 100 µM | [5] 50.8 µM | [6] > 100 µM | [7] 56.2 µM | [8] > 100 µM | [9] > 100 µM | [10] > 100 µM | [11] > 100 µM | [18] > 100 µM | [12] > 100 µM | [14] > 100 µM | [15] > 100 µM | [16] > 100 µM | [17] > 100 µM

O=c1cc(-c2ccc(O)cc2)oc2cc(O[C@@H]3O[C@H](CO)[C@@H](O)[C@H](O)[C@H]3O)cc(O)c12 [APIGETRIN]
inactive: [20] 67.1 µM | [1] 26.2 µM | [2] 75.9 µM | [3] 33.4 µM | [4] 83.9 µM | [5] 53 µM | [6] 57.9 µM | [7] 77.8 µM | [8] > 100 µM | [9] 50.8 µM | [10] > 100 µM | [11] > 100 µM | [12] 51.3 µM | [13] 40.8 µM | [14] 72.9 µM | [19] 81.7 µM | [15] > 100 µM | [16] 71 µM | [17] 43.2 µM

COc1cc(/C=C/C(=O)C2(C(=O)/C=C/c3cc(OC)c(OC)c(OC)c3)CCCCC2)cc(OC)c1OC
inactive: [20] > 100 µM | [1] 62.1 µM | [2] 34.3 µM | [3] 31.1 µM | [4] 1.22 µM | [5] 35.7 µM | [6] 27.4 µM | [7] 51.3 µM | [8] 27.6 µM | [9] 53.3 µM | [10] 23.3 µM | [11] 94.2 µM | [12] 40.5 µM | [13] 56.4 µM | [14] 38.3 µM | [19] 76.2 µM | [15] 34.3 µM | [16] 30.1 µM | [17] 60.7 µM

Cc1ccccc1/N=N/c1ccc(/N=N/c2c(O)ccc3cc(S(=O)(=O)O)cc(S(=O)(=O)O)c23)c(C)c1
inactive: [1] > 100 µM | [2] > 100 µM | [3] > 100 µM | [4] > 100 µM | [5] > 100 µM | [6] > 100 µM | [7] > 100 µM | [8] > 100 µM | [9] > 100 µM | [10] > 100 µM | [11] > 100 µM | [18] > 100 µM | [12] > 100 µM | [13] > 100 µM | [14] > 100 µM | [15] > 100 µM | [16] > 100 µM | [17] > 100 µM

O=[N+]([O-])/C(C(Cl)=C(Cl)Cl)=C(\Nc1ccccc1)n1nnc2ccccc21
inactive: [20] > 100 µM | [1] > 100 µM | [2] 21.4 µM | [3] 65.3 µM | [5] 44.8 µM | [7] > 100 µM | [8] 55.8 µM | [9] 25.9 µM | [10] 48.1 µM | [11] 42.1 µM | [12] 19.8 µM | [13] > 100 µM | [14] 32.2 µM | [19] > 100 µM | [16] 29.9 µM | [17] 21.9 µM
